Article PMC2908543, “Uropathogenic Escherichia coli Modulates Immune Responses and Its Curli Fimbriae Interact with the Antimicrobial Peptide LL-37” (PLoS Pathogens, 2010)
Entries after “also recorded” stand apart in the source; their conditions may differ.

Assays:
[1] = test system: curli-mediated biofilm formation by E. coli; assay: Effect on formation of biofilm, crystal violet microtiter plate; format: cell-based, Escherichia coli
Procedure: To measure the ability of the bacteria to adhere and to form biofilm a crystal violet assay in polystyrene microtiter plates (Costar, Corning, NY, USA) was performed. Bacteria were grown in Luria-Bertani (LB) broth without salt for 24 h at 37°C without shaking. Biofilm was then stained with crystal violet (3%). The dye was solubilized with ethanol (95%) and the optical density was measured at 570 nm.
Plates were filled with 90 µL bacterial culture of planktonic cells and 10 µL of aqueous solution of LL-37 in the same concentrations as in the susceptibility assay. As control peptides, sLL-37 (Innovagen AB) and VIP [27] with similar structural properties as LL-37 were utilized. The plates were incubated without shaking at 37°C for 20 h. After incubation, the amount of biofilm formed was determined as described above.

[2] = test system: recombinant polymerized CsgA; assay: Precipitation of LL-37 with polymerized CsgA, Western blot of supernatant; format: binding, Escherichia coli; conditions: 0.1 µM LL-37 in PBS with 5 µM recombinant polymerized CsgA, 1 h at 37°C
Procedure: (§1) CsgA-His6 and CsgG, a lipoprotein that is required for CsgA secretion, were overexpressed in LSR12 (C600::csg). The purification procedure of recombinant CsgA-His6 was performed as previously described with some modifications. The filtrate was incubated with nickel-nitrilotriacetic acid (Ni-NTA) agarose (Invitrogen) for 1 h at 4°C with shaking, centrifuged at 200×g for 5 min and transferred to a polyprep chromatography column (Bio-Rad, Hercules, CA, USA). To confirm protein identity of CsgA-His6, the isolated protein was prepared and subjected to SDS-PAGE as described below, and thereafter the protein was transferred from the gel to a polyvinylidene fluoride (PVDF) membrane (Invitrogen) at 160 mA for 60 min. The band of 15 kDa, corresponding to the molecular weight of CsgA-His6, was excised from the membrane stained with Coomassie Blue and analysed with N-terminal sequence analysis as has been described. Since it has previously been shown that CsgA-His6 has the same polymerizing properties as wild-type CsgA [59], we refer to CsgA-His6 as CsgA.
LL-37 (0.1 µM in PBS) was mixed with 5 µM wild-type curli, or 5 µM recombinant polymerized CsgA. As control, the same concentration of LL-37 without curli or CsgA was utilized. […] An aliquot of the supernatants was analyzed for the presence of LL-37 with Western blot. […]

CsgA polymerization = molecular target: T1, CsgA polymerization (Escherichia coli, UniProt P28307); assay: CsgA polymerization, Thioflavin T assay, Tecan plate reader; format: biochemical; conditions: 20 µM ThT, 37°C
T1 construct: made in house; host or cells: E. coli LSR12 (C600::csg), co-expressed with CsgG
Procedure: as §1
Purified recombinant monomeric CsgA (10 µM) with or without different concentrations of the peptides LL-37, sLL-37 or VIP was mixed with 20 µM of the fiber-specific fluorescent probe ThT (Sigma-Aldrich). Fluorescence was measured with a Tecan infinite M200 reader (Tecan Nordic AB, Täby, Sweden). The excitation and emission wavelength was 430 and 490 nm, respectively. Measurements were conducted at 37°C every 10 min after shaking the sample for five seconds. Background fluorescence of the peptides themselves was subtracted.

CsgA fiber formation = assay: CsgA fiber formation, Thioflavin T, confocal microscopy; format: biochemical, Escherichia coli
Procedure: as §1
Recombinant monomeric CsgA was mixed with equimolar LL-37, sLL-37 or VIP and 20 µM ThT, and incubated over night at 37°C, washed twice, and suspended in 10 mM Kpi, pH 7.2 before mounting in ProLong Gold antifade mounting medium (Invitrogen). Images were acquired on a Leica TCS SP5 confocal microscope using a 20× objective. Fluorescence intensity was quantified using ImageJ software. The difference in fluorescence intensity of CsgA with and without peptides was calculated and corrected for the contribution of fluorescence from the peptides themselves.

monomeric CsgA = molecular target: T2, monomeric CsgA (Escherichia coli, UniProt P28307); assay: CsgA monomer stability, SDS-PAGE; format: biochemical; conditions: 10 µM CsgA, 20 h at 37°C, Coomassie Blue, seen already at molar ratio 16∶1 (CsgA∶LL-37)
T2 construct: made in house; host or cells: E. coli LSR12 (C600::csg), co-expressed with CsgG
Procedure: To confirm the inhibition of CsgA polymerization we sought to analyse the stability of the CsgA monomer in the absence and presence of LL-37. Freshly purified, monomeric CsgA (10 µM) was incubated for 20 h at 37°C without or with different concentrations of LL-37 and was subsequently separated by SDS-PAGE. After staining with Coomassie Blue, bands corresponding to LL-37 and/or CsgA in monomeric, dimeric or tetrameric form were visualized. When CsgA was incubated alone, monomers were not visible although sometimes dimers and/or tetramers could be observed. This finding indicates spontaneous formation of CsgA oligomers and/or larger polymers that can not migrate into the gel due to their size. […] This was already seen at a molar ratio of 16∶1 (CsgA∶LL-37). To exclude degradation of CsgA as a possible explanation for the lack of the gel band, polymerized CsgA was treated with 90% formic acid, dissolving polymeric CsgA into monomers. After this treatment, a band corresponding to monomeric CsgA was detectable in the gel (Figure 8A).
Samples were prepared in LDS (lithium dodecyl sulphate) sample buffer (4∶1) and incubated at 70°C for 10 min. Electrophoresis was performed using 4–12% Bis-tris NU-PAGE gels (Invitrogen) at 200 V for 35 min. Gels were stained with Coomassie Blue for 1 h and destained over night in 90% water, 8% methanol and 2% acetic acid (vol/vol/vol).

Pseudomonas aeruginosa = conditions: ref [46]; cited from earlier work
Excerpt: Biofilm inhibition by antimicrobial polypeptides has previously been described for Pseudomonas aeruginosa. […] A direct interaction with biofilm components was not investigated in these studies. The effect was rather related to an influence of LL-37 on the bacterial gene expression profile or an influence of lactoferrin on free iron. These and our findings stress an important anti-biofilm role of antimicrobial polypeptides in host defense. It is likely that the anti-biofilm activit ...

T1 sequence (P28307 21-151): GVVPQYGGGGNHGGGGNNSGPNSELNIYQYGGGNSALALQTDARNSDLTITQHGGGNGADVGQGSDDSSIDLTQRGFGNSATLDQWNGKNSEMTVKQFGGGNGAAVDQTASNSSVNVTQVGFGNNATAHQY
T2 sequence (P28307 21-151): as above

CC[C@H](C)[C@H](NC(=O)[C@H](CCCCN)NC(=O)[C@H](CCC(=O)O)NC(=O)[C@H](CCCCN)NC(=O)[C@H](CO)NC(=O)[C@H](CCCCN)NC(=O)[C@H](CCCNC(=N)N)NC(=O)[C@H](Cc1ccccc1)NC(=O)[C@H](Cc1ccccc1)NC(=O)[C@H](CC(=O)O)NC(=O)CNC(=O)[C@H](CC(C)C)NC(=O)[C@@H](N)CC(C)C)C(=O)NCC(=O)N[C@@H](CCCCN)C(=O)N[C@@H](CCC(=O)O)C(=O)N[C@@H](Cc1ccccc1)C(=O)N[C@@H](CCCCN)C(=O)N[C@@H](CCCNC(=N)N)C(=O)N[C@H](C(=O)N[C@H](C(=O)N[C@@H](CCC(N)=O)C(=O)N[C@@H](CCCNC(=N)N)C(=O)N[C@H](C(=O)N[C@@H](CCCCN)C(=O)N[C@@H](CC(=O)O)C(=O)N[C@@H](Cc1ccccc1)C(=O)N[C@@H](CC(C)C)C(=O)N[C@@H](CCCNC(=N)N)C(=O)N[C@@H](CC(N)=O)C(=O)N[C@@H](CC(C)C)C(=O)N[C@H](C(=O)N1CCC[C@H]1C(=O)N[C@@H](CCCNC(=N)N)C(=O)N[C@H](C(=O)N[C@@H](CCC(=O)O)C(=O)N[C@@H](CO)C(=O)O)[C@@H](C)O)C(C)C)[C@@H](C)CC)C(C)C)[C@@H](C)CC [LL-37]
reduction of biofilm formation ([1]; 2.5 µM LL-37, wild-type strain expressing curli and cellulose (data not shown)): more than 80% | reduction of biofilm formation ([1]; 2.5 µM peptide, cellulose-negative, curli-expressing E. coli strain, 37°C, 20 h, two experiments in triplicates): more than 80% | biofilm-inhibitory versus bactericidal concentrations ([1]; qualitative comparison): much lower than bactericidal concentrations | LL-37 in supernatants after precipitation [2]: pronounced decrease of LL-37 in supernatants; also recorded: the levels of LL-37 decreased in the supernatants | inhibition of CsgA polymerization (ThT fluorescence) (CsgA polymerization; 10 µM CsgA with different concentrations of peptide): inhibited by LL-37 in a dose-dependent manner | inhibition of CsgA polymerization (ThT fluorescence) (CsgA polymerization; 10 µM CsgA, molar ratio 1∶1 (CsgA∶LL-37), excitation 430 nm, emission 490 nm): fiber formation was completely inhibited | fluorescence relative to CsgA alone (CsgA fiber formation; CsgA with equimolar peptide (1∶1), 20 µM ThT, 20 h at 37°C, CsgA alone = 1 arbitrary unit, corrected for peptide fluorescence, two experiments): 0.05 arbitrary units | inhibition of CsgA fiber formation versus sLL-37 and VIP (CsgA fiber formation; molar ratio 1∶1, P = 0.007 versus sLL-37 and P = 0.011 versus VIP): significantly stronger than the effect of sLL-37; also recorded: evidently stronger for LL-37 | CsgA monomer band at 15 kDa in presence of LL-37 (monomeric CsgA): a band migrating at 15 kDa, the predicted size of monomeric CsgA, could be observed; also recorded: the CsgA monomer is visible after SDS-PAGE | bacterial surface motility mediated by type IV pili (Pseudomonas aeruginosa): increased bacterial surface motility
